Measured values published in ChEMBL document CHEMBL3612015, “Coumarins as anticancer agents: a review on synthetic strategies, mechanism of action and SAR studies” (Eur J Med Chem, 2015).

How the values were obtained:
[1] = target: Proto-oncogene tyrosine-protein kinase Src (Homo sapiens, UniProt P12931); assay: Inhibition of His6-tagged Src kinase domain (unknown origin) using AEEEIYGEFEAKKKK as substrate preincubated for 10 mins followed by substrate/ATP addition measured after 30 mins by fluorescence assay
Chain of Proto-oncogene tyrosine-protein kinase Src (P12931 2-536 limits assumed): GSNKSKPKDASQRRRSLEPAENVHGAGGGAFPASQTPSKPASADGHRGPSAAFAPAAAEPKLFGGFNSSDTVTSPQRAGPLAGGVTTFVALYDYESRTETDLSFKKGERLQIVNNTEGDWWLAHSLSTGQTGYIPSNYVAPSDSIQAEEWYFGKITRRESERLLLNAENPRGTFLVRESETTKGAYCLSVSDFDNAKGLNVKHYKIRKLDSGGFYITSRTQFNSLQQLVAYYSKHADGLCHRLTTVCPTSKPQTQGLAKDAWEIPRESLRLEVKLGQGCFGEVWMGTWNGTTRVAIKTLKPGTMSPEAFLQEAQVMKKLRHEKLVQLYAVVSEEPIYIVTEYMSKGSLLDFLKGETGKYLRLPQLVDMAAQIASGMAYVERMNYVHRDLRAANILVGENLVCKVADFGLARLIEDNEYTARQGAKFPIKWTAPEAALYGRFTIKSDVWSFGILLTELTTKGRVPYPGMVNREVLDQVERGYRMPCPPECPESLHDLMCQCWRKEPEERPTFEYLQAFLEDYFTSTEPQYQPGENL

UO-31 = assay: Cytotoxicity against human UO31 cells assessed as cell growth after 48 hrs by SRB assay relative to control; format: functional
[2] = Cytotoxicity against human NCI60 cells assessed as cell growth after 48 hrs by SRB assay; format: functional
MDA-MB-231 = assay: Cytotoxicity against human MDA-MB-231 cells assessed as cell growth after 48 hrs by SRB assay relative to control; format: functional
NCI-H522 = assay: Cytotoxicity against human NCI-H522 cells assessed as cell growth after 48 hrs by SRB assay relative to control; format: functional
CAKI-1 = assay: Cytotoxicity against human CAKI-1 cells assessed as cell growth after 48 hrs by SRB assay relative to control; format: functional
SK-OV-3 = assay: Cytotoxicity against human SKOV3 cells assessed as cell proliferation after 72 hrs by CellTiter 96 aqueous one solution cell proliferation assay relative to control; format: functional
MDA-MB-468 = assay: Cytotoxicity against human MDA-MB-468 cells assessed as cell proliferation after 72 hrs by CellTiter 96 aqueous one solution cell proliferation assay relative to control; format: functional
MCF7 [3] = assay: Cytotoxicity against human MCF7 cells assessed as cell proliferation after 72 hrs by CellTiter 96 aqueous one solution cell proliferation assay relative to control; format: functional
MCF7 [4] = assay: Cytotoxicity against human MCF7 cells assessed as growth inhibition at 200 uM after 48 hrs by MTT assay relative to control; format: functional; conditions: MCF7, 48 h, read-out: GI
MCF7 [5] = assay: Cytotoxicity against human MCF7 cells assessed as growth inhibition at 10 uM after 48 hrs by MTT assay relative to control; format: functional; conditions: MCF7, 48 h, read-out: GI
MCF7 [6] = assay: Cytotoxicity against human MCF7 cells assessed as growth inhibition at 100 uM after 48 hrs by MTT assay relative to control; format: functional; conditions: MCF7, 48 h, read-out: GI
MCF7 [7] = assay: Cytotoxicity against human MCF7 cells assessed as growth inhibition at 50 uM after 48 hrs by MTT assay relative to control; format: functional; conditions: MCF7, 48 h, read-out: GI
A549 = assay: Cytotoxicity against human A549 cells after 48 hrs by crystal violet dye-binding assay; format: functional; conditions: A549, 48 h, read-out: LD50 (the source's name)
[8] = Cytotoxicity against rat CRL1439 cells after 48 hrs by crystal violet dye-binding assay; format: cell-based; conditions: read-out: LD50
[9] = Cytotoxicity against rat CRL1548 cells after 48 hrs by crystal violet dye-binding assay; format: functional; conditions: CRL1548, 48 h, read-out: LD50 (the source's name)
HeLa [10] = assay: Cytotoxicity against human HeLa cells assessed as growth inhibition after 72 hrs by MTT assay; format: functional, cell-based
SW-620 = assay: Cytotoxicity against human SW620 cells assessed as growth inhibition after 72 hrs by MTT assay; format: functional, cell-based; conditions: SW-620, 72 h
HepG2 = assay: Cytotoxicity against human HepG2 cells assessed as growth inhibition after 72 hrs by MTT assay; format: functional, cell-based; conditions: HepG2, 72 h
MCF7 [11] = assay: Cytotoxicity against human MCF7 cells after 48 hrs by trypan blue assay; format: functional, cell-based; conditions: MCF7, 48 h
MCF7 [12] = assay: Cytotoxicity against human MCF7 cells after 48 hrs by MTT assay; format: functional, cell-based; conditions: MCF7, 48 h
HeLa [13] = assay: Cytotoxicity against human HeLa cells after 72 hrs by MTT assay; format: functional, cell-based
A2780 = assay: Cytotoxicity against human A2780 cells after 72 hrs by MTT assay; format: functional, cell-based; conditions: A2780, 72 h
KETR3 = assay: Cytotoxicity against human Ketr3 cells after 72 hrs by MTT assay; format: functional, cell-based; conditions: KETR3, 72 h
MCF7 [14] = assay: Cytotoxicity against human MCF7 cells after 72 hrs by MTT assay; format: functional, cell-based; conditions: MCF7, 72 h
Paracentrotus lividus [15] = assay: Antimitotic activity in sea urchin embryo assessed as cleavage arrest; format: functional
Paracentrotus lividus [16] = assay: Antimitotic activity in sea urchin embryo assessed as embryo spinning; format: functional
[17] = Cytotoxicity against human NCI60 cells assessed as cell growth; format: functional
Paracentrotus lividus [18] = assay: Antimitotic activity in sea urchin embryo assessed as cleavage alterations; format: functional
[19] = Cytotoxicity against human Hep2 cells; format: functional, cell-based; conditions: HEp-2
Vero = assay: Cytotoxicity against African green monkey Vero cells; format: cell-based; conditions: Chlorocebus sabaeus
U-937 [20] = assay: Cytotoxicity against human U937 cells assessed as decrease in cell viability after 48 hrs; format: functional; conditions: U-937, 48 h
U-937 [21] = assay: Antiproliferative activity against human U937 cells after 3 days; format: functional, cell-based; conditions: U-937, 72 h

**Q.** With `Nc1ccc2c(C(F)(F)F)cc(=O)oc2c1` as the molecule, how does the IC50 [1] read?
**A.** 30.9 µM

**Q.** What does the source list for `O=c1oc2ccccc2cc1C1=NN(c2ccccc2)C(c2ccc(O)cc2)C1` (stereo unspecified)?
**A.** Activity (UO-31): -63.77%; Activity [2]: 77.59%; Activity (MDA-MB-231): -67.37%; Activity (NCI-H522): -67.37%; Activity (CAKI-1): -65.18%

**Q.** For `CCCCCCc1c(C)c2ccc(N(CC)CCCC(=O)O)cc2oc1=O`, which IC50 [1] is on record?
**A.** 36.5 µM

**Q.** For `CCCCCCCCCCc1c(C)c2ccc(N(CC)CCCC(=O)O)cc2oc1=O`, which IC50 [1] is on record?
**A.** 21.6 µM

**Q.** Which IC50 [1] does the source give for `CCCCCCCCCCc1c(C)c2ccc(N)cc2oc1=O` here?
**A.** 73.5 µM

**Q.** What does the source list for `CCc1c(C)c2cc3c(c(O)c2oc1=O)OC(C)(C)CC3`?
**A.** Activity (SK-OV-3): 30%; Activity (MDA-MB-468): 85%; Activity (MCF7 [3]): 45%

**Q.** Which results are given for `CCCCCCCCCCc1c(C)c2cc3c(c(O)c2oc1=O)OC(C)(C)CC3`?
**A.** Activity (SK-OV-3): 35%; Activity (MDA-MB-468): 36%; Activity (MCF7 [3]): 57%

**Q.** Which inhibition of growth at 200 µM (MCF7 [4]) does the source give for `C=CCOc1cc2oc(=O)cc(-c3nc4ccccc4s3)c2cc1OCC=C` here?
**A.** 70.3%

**Q.** What about the inhibition of growth at 10 µM (MCF7 [5]) of the same molecule?
**A.** 18.5%

**Q.** And the inhibition of growth at 100 µM (MCF7 [6])?
**A.** 43.8%

**Q.** And the inhibition of growth at 50 µM (MCF7 [7])?
**A.** 25.3%

**Q.** Which CC50 (A549) does the source give for `CC(=O)Oc1ccc(-c2c(-c3ccccc3)c3ccccc3oc2=O)cc1` here?
**A.** 89.3 µM

**Q.** And the CC50 at 48 h [8]?
**A.** > 100 µM

**Q.** And the CC50 [9]?
**A.** > 100 µM

**Q.** Which results are given for `CCN(CC)c1ccc2c(C)c(-c3ccc(OC(C)=O)cc3)c(=O)oc2c1`?
**A.** CC50 (A549): 48.1 µM; CC50 at 48 h [8]: 49.1 µM; CC50 [9]: 45.1 µM

**Q.** Which IC50 (HeLa [10]) does the source give for `COc1ccc2c(Cn3cnc(C(N)=O)n3)cc(=O)oc2c1` here?
**A.** 35.5 µM

**Q.** With `Nc1nc(Cl)c2cnn(Cc3cc(=O)oc4cc(O)ccc34)c2n1` as the molecule, how does the IC50 (SW-620) read?
**A.** 35.4 µM

**Q.** What about the IC50 (HepG2) of the same molecule?
**A.** 25.6 µM

**Q.** And the IC50 (HeLa [10])?
**A.** 34 µM

**Q.** For `Cc1cc(C(=O)c2ccccc2Br)ccc1OCC(=O)NNC(=O)c1cc2ccccc2oc1=O`, which IC50 (MCF7 [11]) is on record?
**A.** 7.7 µM

**Q.** And the IC50 (MCF7 [12])?
**A.** 7.6 µM

**Q.** What does the source list for `Cc1ccc(C(=O)c2cc(F)c(OCC(=O)NNC(=O)c3cc4ccccc4oc3=O)c(Cl)c2)cc1`?
**A.** IC50 (MCF7 [11]): 9.4 µM; IC50 (MCF7 [12]): 9.3 µM

**Q.** Which results are given for `Cc1cc(C(=O)c2ccc(Cl)cc2Cl)ccc1OCC(=O)NNC(=O)c1cc2ccccc2oc1=O`?
**A.** IC50 (MCF7 [11]): 10.4 µM; IC50 (MCF7 [12]): 10.2 µM

**Q.** Which IC50 (HeLa [13]) does the source give for `CO[C@@H]1[C@@H](N)[C@@H](O)[C@H](Oc2ccc3cc(NC(=O)c4ccccc4)c(=O)oc3c2Cl)OC1(C)C` here?
**A.** 5.35 µM

**Q.** What about the IC50 (A2780) of the same molecule?
**A.** 2.83 µM

**Q.** What about the IC50 (KETR3) of the same molecule?
**A.** 14.6 µM

**Q.** What about the IC50 (MCF7 [14]) of the same molecule?
**A.** 13.8 µM

**Q.** With `CO[C@@H]1[C@@H](N)[C@@H](O)[C@H](Oc2ccc3cc(NC(=O)c4ccccc4)c(=O)oc3c2C)OC1(C)C` as the molecule, how does the IC50 (HeLa [13]) read?
**A.** 2.89 µM

**Q.** What about the IC50 (A2780) of the same molecule?
**A.** 7.52 µM

**Q.** And the IC50 (KETR3)?
**A.** 2.14 µM

**Q.** And the IC50 (MCF7 [14])?
**A.** 8.12 µM

**Q.** Which results are given for `COc1ccc(-c2cc3cc(OC)c(OC)c(OC)c3oc2=O)cc1`?
**A.** EC (Paracentrotus lividus [15]): 4 µM; EC (Paracentrotus lividus [16]): >5 µM; GI50 [17]: 3.98 µM; EC (Paracentrotus lividus [18]): 0.2 µM

**Q.** Which results are given for `Cc1cc(=O)oc2ccc(OCNc3ccc(F)cc3)cc12`?
**A.** IC50 [19]: 3.62 µM; IC50 (Vero): 30.7 µM

**Q.** What does the source list for `Cc1cc(=O)oc2ccc(OCNc3ccccc3O)cc12`?
**A.** IC50 [19]: 4.2 µM; IC50 (Vero): 22.9 µM

**Q.** For `COc1ccccc1NCOc1ccc2oc(=O)cc(C)c2c1`, which IC50 [19] is on record?
**A.** 5.43 µM

**Q.** What about the IC50 (Vero) of the same molecule?
**A.** 21.3 µM

**Q.** For `Cc1cc(=O)oc2cc(O)c(O)cc12` [4-METHYLESCULETIN], which CC50 (U-937 [20]) is on record?
**A.** 76 µM

**Q.** Which results are given for `O=c1ccc2ccc(O)c(O)c2o1` [DAPHNETIN]?
**A.** CC50 (U-937 [20]): 120 µM; IC50 (U-937 [21]): 83.2 µM
